Measured values as given in ChEMBL document CHEMBL5696439 (Cancer Res, 2010).
Calls of active or inactive are those of the source. No cut-off for these calls is given here.

Experiments:
[1] = tested on: Tyrosine-protein kinase ABL1 (Homo sapiens), P00519 [E255K]; assay: Inhibition of recombinant human full-length His-tagged ABL1 E255K mutant expressed in insect cells at 2 uM using Tyr 02 as substrate measured after 1 hr by Z'-LYTE assay relative to control; details: Insect cell
[2] = target: Fibroblast growth factor receptor 4 (Homo sapiens) (UniProt P22455); assay: Inhibition of recombinant human His-tagged FGFR4 ([…] residues) expressed in insect cells at 2 uM using Tyr 04 as substrate measured after 1 hr by Z'-LYTE assay relative to control; details: Insect cell
MDA-MB-361 = assay: Antiproliferative activity against human MDA-MB-361 cells assessed as cell growth inhibition at 10 micromol/L incubated for 3 days by MTS assay relative to control; format: functional; details: MDA-MB-361, 72 h, dose 10 µmol/L, time 3 day
[3] = target: PAS domain-containing serine/threonine-protein kinase (Homo sapiens) (UniProt Q96RG2); assay: Inhibition of recombinant human GST-tagged PASK (879-1323 residues) expressed in insect cells at 2 uM using Ser/Thr 07 as substrate measured after 1 hr by Z'-LYTE assay relative to control; details: Insect cell
[4] = target: Phosphatidylinositol 4,5-bisphosphate 3-kinase catalytic subunit gamma isoform (Homo sapiens, UniProt P48736); assay: Inhibition of PI3Kgamma (unknown origin) using PIP2 as substrate measured after 15 to 30 mins by fluorescence polarization assay
Sequence of Phosphatidylinositol 4,5-bisphosphate 3-kinase catalytic subunit gamma isoform (P48736 whole entry, the tested form may be a part, canonical isoform): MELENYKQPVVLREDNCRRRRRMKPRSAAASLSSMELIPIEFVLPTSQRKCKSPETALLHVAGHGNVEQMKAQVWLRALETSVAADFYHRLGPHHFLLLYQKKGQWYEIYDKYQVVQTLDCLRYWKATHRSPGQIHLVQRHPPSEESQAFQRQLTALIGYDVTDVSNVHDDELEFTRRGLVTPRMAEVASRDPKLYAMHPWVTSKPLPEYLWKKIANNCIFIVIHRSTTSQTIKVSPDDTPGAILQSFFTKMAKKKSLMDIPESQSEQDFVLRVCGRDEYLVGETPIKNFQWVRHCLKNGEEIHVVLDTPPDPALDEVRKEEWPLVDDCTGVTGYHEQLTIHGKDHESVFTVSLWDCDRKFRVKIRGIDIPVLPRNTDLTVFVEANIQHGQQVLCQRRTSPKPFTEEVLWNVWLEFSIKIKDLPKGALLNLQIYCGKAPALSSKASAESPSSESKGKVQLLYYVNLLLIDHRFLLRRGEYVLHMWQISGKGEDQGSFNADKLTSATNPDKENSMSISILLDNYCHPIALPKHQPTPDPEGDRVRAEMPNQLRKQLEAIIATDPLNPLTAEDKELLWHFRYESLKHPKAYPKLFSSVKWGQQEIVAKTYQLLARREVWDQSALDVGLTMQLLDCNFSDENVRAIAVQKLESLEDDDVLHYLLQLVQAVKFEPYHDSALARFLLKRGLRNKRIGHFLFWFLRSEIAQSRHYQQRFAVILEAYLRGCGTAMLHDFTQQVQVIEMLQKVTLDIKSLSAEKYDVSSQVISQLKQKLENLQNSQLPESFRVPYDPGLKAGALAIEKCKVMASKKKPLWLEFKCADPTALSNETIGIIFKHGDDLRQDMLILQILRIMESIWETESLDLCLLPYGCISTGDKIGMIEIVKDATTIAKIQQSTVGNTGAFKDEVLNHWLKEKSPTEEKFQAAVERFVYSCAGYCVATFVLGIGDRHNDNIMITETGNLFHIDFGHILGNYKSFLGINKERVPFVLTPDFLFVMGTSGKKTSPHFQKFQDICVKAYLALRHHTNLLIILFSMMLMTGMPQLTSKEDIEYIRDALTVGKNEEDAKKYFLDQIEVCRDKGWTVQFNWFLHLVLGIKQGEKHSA

[5] = target: BDNF/NT-3 growth factors receptor (Homo sapiens) (UniProt Q16620); assay: Inhibition of recombinant human His-tagged NTRK2 (526-838 residues) expressed in insect cells at 2 uM using Tyr 01 as substrate measured after 1 hr by Z'-LYTE assay relative to control; details: Insect cell
[6] = target: Casein kinase I isoform delta (Homo sapiens) (UniProt P48730); assay: Inhibition of recombinant human full-length GST-tagged CSNK1D expressed in insect cells at 2 uM using Ser/Thr 11 as substrate measured after 1 hr by Z'-LYTE assay relative to control; details: Insect cell
Sequence of Casein kinase I isoform delta (Homo sapiens) (P48730 whole entry, looked up, canonical isoform): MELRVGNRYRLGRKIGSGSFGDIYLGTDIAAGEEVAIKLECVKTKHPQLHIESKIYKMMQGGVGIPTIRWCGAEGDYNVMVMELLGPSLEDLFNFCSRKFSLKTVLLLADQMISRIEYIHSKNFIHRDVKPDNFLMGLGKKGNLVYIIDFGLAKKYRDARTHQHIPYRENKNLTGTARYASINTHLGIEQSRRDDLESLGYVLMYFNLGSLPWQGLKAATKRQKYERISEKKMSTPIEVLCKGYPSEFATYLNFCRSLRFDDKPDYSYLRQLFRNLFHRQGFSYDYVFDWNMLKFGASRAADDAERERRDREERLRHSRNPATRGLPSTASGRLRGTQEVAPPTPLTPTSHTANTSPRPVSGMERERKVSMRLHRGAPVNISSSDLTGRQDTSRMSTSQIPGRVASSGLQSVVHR

[7] = target: Calcium/calmodulin-dependent protein kinase type II subunit alpha (Homo sapiens) (UniProt Q9UQM7); assay: Inhibition of recombinant human full-length His-tagged CAMK2A expressed in insect cells at 2 uM using Ser/Thr 04 as substrate measured after 1 hr by Z'-LYTE assay relative to control; details: Insect cell
Rat1 = assay: Inhibition of mTORC2 in rat Rat1 cells assessed as AKT phosphorylation at S473 level preincubated for 1 hrs in the presence of IGF-1 stimulation by immunoblot assay; format: cell-based; details: dose 0.01-2 µmol/L
PC3MM2 = assay: Antitumor activity against human PC3MM2 cells assessed as block the hypoxia-induced VEGF production in low oxygen at 0.3 micromol/L incubated for 24 hrs by ELISA analysis; format: functional, cell-based; details: dose 0.3 µmol/L
HT-29 = assay: Antitumor activity against human HT-29 cells xenografted in female nude mouse model assessed as reduction in P-AKT at T308 level at 50 mg/kg, iv administered once a week and measured at least 8 hrs by immunoblot analysis; format: functional, organism-based
HCT-116 [8] = assay: Antitumor activity against human HCT-116 cells xenografted in female nude mouse model assessed as reduction in P-AKT at T308 level at 50 mg/kg, iv administered once a week and measured at least 8 hrs by immunoblot analysis; format: functional, organism-based
[9] = target: Receptor tyrosine-protein kinase erbB-4 (Homo sapiens) (UniProt Q15303); assay: Inhibition of recombinant human GST-tagged ERBB4 (708-993 residues) expressed in insect cells at 2 uM using Tyr 01 as substrate measured after 1 hr by Z'-LYTE assay relative to control; details: Insect cell
Sequence of Receptor tyrosine-protein kinase erbB-4 (Homo sapiens) (Q15303 whole entry, the tested form may be a part): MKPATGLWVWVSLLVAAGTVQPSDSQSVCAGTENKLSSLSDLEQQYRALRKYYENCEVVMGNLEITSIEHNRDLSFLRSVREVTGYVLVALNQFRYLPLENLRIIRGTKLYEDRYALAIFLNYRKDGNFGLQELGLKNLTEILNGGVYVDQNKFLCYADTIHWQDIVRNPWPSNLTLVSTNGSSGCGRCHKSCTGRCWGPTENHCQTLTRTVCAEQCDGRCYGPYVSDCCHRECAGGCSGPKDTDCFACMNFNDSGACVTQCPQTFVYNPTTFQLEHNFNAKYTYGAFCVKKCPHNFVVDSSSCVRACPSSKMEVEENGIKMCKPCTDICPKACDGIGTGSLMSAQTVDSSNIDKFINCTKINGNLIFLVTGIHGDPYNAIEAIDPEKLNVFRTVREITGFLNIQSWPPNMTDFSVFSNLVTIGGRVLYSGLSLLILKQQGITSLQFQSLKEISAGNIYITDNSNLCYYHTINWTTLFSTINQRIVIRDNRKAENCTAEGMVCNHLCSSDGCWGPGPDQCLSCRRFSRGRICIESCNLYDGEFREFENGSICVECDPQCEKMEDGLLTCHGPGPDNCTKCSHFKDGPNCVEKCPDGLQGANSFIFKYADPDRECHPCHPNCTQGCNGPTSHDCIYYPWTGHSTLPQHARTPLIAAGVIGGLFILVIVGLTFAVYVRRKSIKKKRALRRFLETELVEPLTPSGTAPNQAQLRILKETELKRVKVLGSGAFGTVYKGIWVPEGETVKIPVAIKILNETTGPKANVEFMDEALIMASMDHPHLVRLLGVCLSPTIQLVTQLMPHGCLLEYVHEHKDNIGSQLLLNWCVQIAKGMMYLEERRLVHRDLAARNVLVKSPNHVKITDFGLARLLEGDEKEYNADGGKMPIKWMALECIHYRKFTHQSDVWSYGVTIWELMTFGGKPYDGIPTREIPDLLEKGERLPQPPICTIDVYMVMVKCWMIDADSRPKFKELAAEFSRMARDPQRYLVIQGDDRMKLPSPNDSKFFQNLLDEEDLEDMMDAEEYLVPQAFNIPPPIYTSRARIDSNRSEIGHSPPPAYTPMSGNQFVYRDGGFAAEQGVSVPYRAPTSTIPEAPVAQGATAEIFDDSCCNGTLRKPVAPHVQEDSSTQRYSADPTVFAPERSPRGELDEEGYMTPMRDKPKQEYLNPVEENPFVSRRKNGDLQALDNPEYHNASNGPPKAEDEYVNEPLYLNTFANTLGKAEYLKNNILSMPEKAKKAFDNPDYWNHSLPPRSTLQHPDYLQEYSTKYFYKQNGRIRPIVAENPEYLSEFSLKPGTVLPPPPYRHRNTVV

[10] = target: Tyrosine-protein kinase JAK1 (Homo sapiens) (UniProt P23458); assay: Inhibition of recombinant human GST-tagged JAK1 (866-1154 residues) expressed in insect cells at 2 uM using Tyr 06 as substrate measured after 1 hr by Z'-LYTE assay relative to control; details: Insect cell
[11] = target: Tyrosine-protein kinase ZAP-70 (Homo sapiens) (UniProt P43403); assay: Inhibition of recombinant human full length His-tagged ZAP70 expressed in baculovirus expression system at 2 uM using […] as substrate measured after 1 hr by Z'-LYTE assay relative to control
[12] = target: Cyclin-dependent kinase 1/cyclin B1 (Homo sapiens) (UniProt P06493+P14635); assay: Inhibition of recombinant human full-length His-tagged CDK1/cyclin B expressed in insect cells at 2 uM using Ser/Thr 18 as substrate measured after 1 hr by Z'-LYTE assay relative to control; details: Insect cell
[13] = target: Mitogen-activated protein kinase 11 (Homo sapiens) (UniProt Q15759); assay: Inhibition of recombinant human full length His-tagged MAPK11 expressed in insect cells at 2 uM using Ser/Thr 15 as substrate measured after 1 hr by Z'-LYTE assay relative to control; details: Insect cell
Sequence of Mitogen-activated protein kinase 11 (Homo sapiens) (Q15759 whole entry): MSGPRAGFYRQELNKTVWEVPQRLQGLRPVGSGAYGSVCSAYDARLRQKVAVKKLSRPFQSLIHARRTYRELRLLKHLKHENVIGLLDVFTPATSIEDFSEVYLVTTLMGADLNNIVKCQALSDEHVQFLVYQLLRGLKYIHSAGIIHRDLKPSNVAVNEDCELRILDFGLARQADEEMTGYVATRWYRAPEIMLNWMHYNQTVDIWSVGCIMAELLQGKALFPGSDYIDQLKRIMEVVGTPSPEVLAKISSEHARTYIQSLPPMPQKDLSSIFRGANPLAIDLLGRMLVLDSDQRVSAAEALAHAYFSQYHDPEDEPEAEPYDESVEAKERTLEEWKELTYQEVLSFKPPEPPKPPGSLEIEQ

[14] = target: Serine/threonine-protein kinase B-raf (Homo sapiens) (UniProt P15056); assay: Inhibition of recombinant human full-length GST tagged BRAF expressed in insect cells at 2 uM using Ser/Thr 03 as substrate measured after 1 hr by Z'-LYTE assay relative to control; details: Insect cell
mTORC2 (Homo sapiens) = mTORC2 (Homo sapiens) (UniProt P42345+Q6R327+Q9BVC4+Q9BPZ7); details: U-87 MG, dose 0.025-2 µmol/L, time 6.0 hrs
[15] = target: Serine/threonine-protein kinase PLK2 (Homo sapiens) (UniProt Q9NYY3); assay: Inhibition of recombinant human full length GST-tagged PLK2 expressed in baculovirus expression system at 2 uM using Ser/Thr 16 as substrate measured after 1 hr by Z'-LYTE assay relative to control
[16] = target: Platelet-derived growth factor receptor beta (Homo sapiens) (UniProt P09619); assay: Inhibition of recombinant human His-tagged PDGFRB (558-1106 residues) expressed in baculovirus expression system at 2 uM using Tyr 04 as substrate measured after 1 hr by Z'-LYTE assay relative to control
Sequence of Platelet-derived growth factor receptor beta (Homo sapiens) (P09619 whole entry, the tested form may be a part): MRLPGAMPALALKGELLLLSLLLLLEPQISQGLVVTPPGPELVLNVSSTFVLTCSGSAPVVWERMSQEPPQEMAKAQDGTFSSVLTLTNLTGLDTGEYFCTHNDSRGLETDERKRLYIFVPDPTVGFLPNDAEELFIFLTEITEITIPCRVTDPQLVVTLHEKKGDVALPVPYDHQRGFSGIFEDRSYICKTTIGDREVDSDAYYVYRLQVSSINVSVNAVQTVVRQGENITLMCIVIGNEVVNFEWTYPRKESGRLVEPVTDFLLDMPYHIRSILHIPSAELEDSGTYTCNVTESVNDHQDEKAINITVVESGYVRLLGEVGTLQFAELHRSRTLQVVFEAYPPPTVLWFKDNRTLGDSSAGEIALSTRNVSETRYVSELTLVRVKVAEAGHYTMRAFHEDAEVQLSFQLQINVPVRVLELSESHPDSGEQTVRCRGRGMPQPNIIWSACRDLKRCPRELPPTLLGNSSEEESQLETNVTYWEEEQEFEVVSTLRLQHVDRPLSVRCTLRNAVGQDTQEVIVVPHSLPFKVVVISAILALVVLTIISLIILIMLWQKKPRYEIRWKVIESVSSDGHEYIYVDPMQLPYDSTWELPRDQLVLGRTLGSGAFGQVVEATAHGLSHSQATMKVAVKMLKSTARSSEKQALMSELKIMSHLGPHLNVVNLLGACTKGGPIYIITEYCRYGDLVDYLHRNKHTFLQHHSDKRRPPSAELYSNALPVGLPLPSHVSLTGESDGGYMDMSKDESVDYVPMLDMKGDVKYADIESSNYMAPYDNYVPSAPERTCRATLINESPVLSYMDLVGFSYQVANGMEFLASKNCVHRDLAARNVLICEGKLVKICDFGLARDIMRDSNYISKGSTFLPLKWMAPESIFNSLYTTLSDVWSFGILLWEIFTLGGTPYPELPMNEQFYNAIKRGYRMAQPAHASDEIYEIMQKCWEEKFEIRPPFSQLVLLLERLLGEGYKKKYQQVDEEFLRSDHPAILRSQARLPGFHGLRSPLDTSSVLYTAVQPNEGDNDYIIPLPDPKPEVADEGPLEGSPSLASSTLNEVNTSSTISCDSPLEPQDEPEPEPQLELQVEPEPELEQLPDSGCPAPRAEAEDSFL

HCT-116 [17] = assay: Antitumor activity against human HCT-116 cells xenografted in female nude mouse model assessed as suppression in P-AKT at S473 level at 50 mg/kg, iv administered once a week and measured at least 8 hrs by immunoblot analysis; format: functional, organism-based
NCI-H157 = assay: Antiproliferative activity against human NCI-H157 cells assessed as cell growth inhibition incubated for 24 hrs by MTS assay; format: functional, cell-based; details: NCI-H157, 24 h
U-87 MG = assay: Antitumor activity against human U-87MG cells assessed as reduction in lactate production at 1 micromol/L incubated for 24 hrs relative to control; format: functional, U-87MG ATCC; parameters: scale not given: the % may be the effect or the level left; details: dose 1 µmol/L, at 1 µM
[18] = target: Ribosomal protein S6 kinase alpha-3 (Homo sapiens) (UniProt P51812); assay: Inhibition of recombinant human full length His-tagged RPS6KA3 expressed in baculovirus expression system at 2 uM using Ser/Thr 06 as substrate measured after 1 hr by Z'-LYTE assay relative to control
Sequence of Ribosomal protein S6 kinase alpha-3 (Homo sapiens) (P51812 whole entry): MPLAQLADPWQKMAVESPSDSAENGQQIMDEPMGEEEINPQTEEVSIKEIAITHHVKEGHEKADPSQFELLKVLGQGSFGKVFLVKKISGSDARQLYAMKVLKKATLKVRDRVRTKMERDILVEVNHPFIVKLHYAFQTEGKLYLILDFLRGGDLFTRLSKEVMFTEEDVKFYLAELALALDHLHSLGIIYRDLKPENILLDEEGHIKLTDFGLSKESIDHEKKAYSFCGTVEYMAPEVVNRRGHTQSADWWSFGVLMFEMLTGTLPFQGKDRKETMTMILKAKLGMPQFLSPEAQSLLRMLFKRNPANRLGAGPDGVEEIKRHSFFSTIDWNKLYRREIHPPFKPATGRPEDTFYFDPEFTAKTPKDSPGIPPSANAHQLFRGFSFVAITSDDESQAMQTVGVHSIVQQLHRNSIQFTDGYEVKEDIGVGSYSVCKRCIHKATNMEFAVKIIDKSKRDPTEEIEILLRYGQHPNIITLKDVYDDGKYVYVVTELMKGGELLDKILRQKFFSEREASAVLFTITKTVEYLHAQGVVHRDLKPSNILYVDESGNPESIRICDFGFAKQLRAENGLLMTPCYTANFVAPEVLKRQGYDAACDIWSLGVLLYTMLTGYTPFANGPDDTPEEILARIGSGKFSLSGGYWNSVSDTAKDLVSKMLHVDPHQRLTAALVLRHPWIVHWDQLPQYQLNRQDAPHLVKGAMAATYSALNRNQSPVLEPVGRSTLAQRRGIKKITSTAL

## CNC(=O)Nc1ccc(-c2nc(N3CC4CCC(C3)O4)c3cnn(C4CCC5(CC4)OCCO5)c3n2)cc1
[1]
  inhibition: 5%
[2]
  inhibition: 4%
MDA-MB-361
  inhibition at 10 µM: 100%
[3]
  inhibition: 3%
[4]
  IC50: > 10000 nM
[5]
  inhibition: 1%
[6]
  inhibition: 2%
[7]
  inhibition: 0%
Rat1
  inhibition: Active
PC3MM2
  Activity: Active
HT-29
  Activity: inactive
HCT-116 [8]
  Activity: inactive
[9]
  inhibition: 3%
[10]
  inhibition: 5%
[11]
  inhibition: 7%
[12]
  inhibition: 6%
[13]
  inhibition: 2%
[14]
  inhibition: 6%
mTORC2 (Homo sapiens)
  inhibition: Active
[15]
  inhibition: 1%
[16]
  inhibition: 2%
HCT-116 [17]
  Activity: Active
NCI-H157
  IC50: 145 nM
U-87 MG
  Activity: 48%
[18]
  inhibition: -2%
